The test has as its target T1, mTOR (Homo sapiens, UniProt P42345).
T1 construct: FLAG; made in house
As to the kind of experiment: In Vitro mTOR Kinase Assay (Echo), Test (a)(ii). In kind it is biochemical. To be noted: table of enzyme assay Test (a)(ii); read-out: Test (a)(ii) IC50. Summed up:
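FLAG-tagged truncated mTOR (residues 1362-2549), expressed in HEK293 and purified via the FLAG tag, phosphorylated a biotinylated peptide over 2 hours at room temperature. EDTA stopped the reaction. Phospho-T389 was detected overnight by AlphaScreen using the p70 S6K T389 antibody with Protein A/streptavidin beads; IC50 reported.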

T1 sequence (P42345 1362-2549): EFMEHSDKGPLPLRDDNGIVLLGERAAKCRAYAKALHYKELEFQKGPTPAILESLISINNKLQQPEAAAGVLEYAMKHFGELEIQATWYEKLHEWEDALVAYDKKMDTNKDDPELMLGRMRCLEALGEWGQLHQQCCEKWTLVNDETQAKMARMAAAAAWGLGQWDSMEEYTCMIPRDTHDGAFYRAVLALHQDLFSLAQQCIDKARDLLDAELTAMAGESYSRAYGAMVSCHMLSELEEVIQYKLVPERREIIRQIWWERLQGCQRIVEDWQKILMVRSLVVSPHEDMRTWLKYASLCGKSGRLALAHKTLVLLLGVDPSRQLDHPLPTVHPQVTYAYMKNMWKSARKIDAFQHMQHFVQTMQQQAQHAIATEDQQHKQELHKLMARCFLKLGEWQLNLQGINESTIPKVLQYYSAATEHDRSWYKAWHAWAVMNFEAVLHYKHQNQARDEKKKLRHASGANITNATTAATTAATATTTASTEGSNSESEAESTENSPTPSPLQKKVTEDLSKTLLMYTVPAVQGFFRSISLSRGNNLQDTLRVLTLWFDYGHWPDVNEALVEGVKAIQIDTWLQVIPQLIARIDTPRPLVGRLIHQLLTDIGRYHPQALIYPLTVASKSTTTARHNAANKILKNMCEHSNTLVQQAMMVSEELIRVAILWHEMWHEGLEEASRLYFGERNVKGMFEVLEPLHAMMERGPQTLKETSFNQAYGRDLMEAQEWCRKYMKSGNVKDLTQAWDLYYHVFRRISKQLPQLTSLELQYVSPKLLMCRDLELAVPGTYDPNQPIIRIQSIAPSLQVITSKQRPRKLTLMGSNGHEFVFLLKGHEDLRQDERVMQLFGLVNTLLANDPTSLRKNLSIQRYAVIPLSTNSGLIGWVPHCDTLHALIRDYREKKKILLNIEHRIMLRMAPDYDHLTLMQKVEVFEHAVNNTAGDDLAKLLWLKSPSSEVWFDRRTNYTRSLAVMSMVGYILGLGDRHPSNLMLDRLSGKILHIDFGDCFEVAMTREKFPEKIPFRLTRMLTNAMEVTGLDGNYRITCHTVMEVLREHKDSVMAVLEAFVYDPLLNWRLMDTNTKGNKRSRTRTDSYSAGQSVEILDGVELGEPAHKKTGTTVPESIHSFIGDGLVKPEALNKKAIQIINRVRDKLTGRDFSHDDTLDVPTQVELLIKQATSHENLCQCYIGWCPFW

By IC50 is commonly meant the concentration at which inhibition is half-maximal. As for `CCS(=O)(=O)C1(c2cc(N3CCOC[C@@H]3C)nc(-c3ccc(NC(=O)NCC(F)F)cc3)n2)CC1` [Example 36eg, 3-(2,2-difluoroethyl)-1-[4-[4-(1-ethylsulfonylcyclopropyl)-6-[(3S)-3-methylmorpholin-4-yl]pyrimidin-2-yl]phenyl]urea], the IC50 was 8.77 nM. Take `C[C@H]1COCCN1c1cc(C2(S(=O)(=O)C3CC3)CCC2)nc(-c2ccc(NC(=O)NCCO)cc2)n1` [Example 36f, 1-[4-[4-(1-cyclopropylsulfonylcyclobutyl)-6-[(3S)-3-methylmorpholin-4-yl]pyrimidin-2-yl]phenyl]-3-(2-hydroxyethyl)urea]: the IC50 is 2.78 nM.

On to `C[C@H]1COCCN1c1cc(C2(S(=O)(=O)C3CC3)CCC2)nc(-c2ccc(NC(=O)NCCC#N)cc2)n1` [Example 36g, 3-(2-cyanoethyl)-1-[4-[4-(1-cyclopropylsulfonylcyclobutyl)-6-[(3S)-3-methylmorpholin-4-yl]pyrimidin-2-yl]phenyl]urea], for which the IC50 came to 8.41 nM. The same measure for `C[C@H]1COCCN1c1cc(C2(S(=O)(=O)C3CC3)CCC2)nc(-c2ccc(NC(=O)Nc3cnn(C)c3)cc2)n1` [Example 36h, 1-[4-[4-(1-cyclopropylsulfonylcyclobutyl)-6-[(3S)-3-methylmorpholin-4-yl]pyrimidin-2-yl]phenyl]-3-(1-methylpyrazol-4-yl)urea]: 3.14 nM. `C[C@H]1COCCN1c1cc(C2(S(=O)(=O)C3CC3)CCC2)nc(-c2ccc(NC(=O)NCc3ncc[nH]3)cc2)n1` [Example 36i, 1-[4-[4-(1-cyclopropylsulfonylcyclobutyl)-6-[(3S)-3-methylmorpholin-4-yl]pyrimidin-2-yl]phenyl]-3-(1H-imidazol-2-ylmethyl)urea]: the IC50 turned out to be 51.8 nM.

Take `C[C@H]1COCCN1c1cc(C2(S(=O)(=O)C3CC3)CCCC2)nc(-c2ccc(NC(=O)NC3CC3)cc2)n1` [Example 36j, 3-cyclopropyl-1-[4-[4-(1-cyclopropylsulfonylcyclopentyl)-6-[(3S)-3-methylmorpholin-4-yl]pyrimidin-2-yl]phenyl]urea]: the IC50 amounted to 18 nM. Consider `C[C@H]1COCCN1c1cc(C2(S(=O)(=O)C3CC3)CCCC2)nc(-c2ccc(NC(=O)NCCO)cc2)n1` [Example 36k, 1-[4-[4-(1-cyclopropylsulfonylcyclopentyl)-6-[(3S)-3-methylmorpholin-4-yl]pyrimidin-2-yl]phenyl]-3-(2-hydroxyethyl)urea], for which the IC50 was found to be 13.1 nM.

Regarding `C[C@H]1COCCN1c1cc(C2(S(=O)(=O)C3CC3)CCCC2)nc(-c2ccc(NC(=O)NCCC#N)cc2)n1` [Example 36l, 3-(2-cyanoethyl)-1-[4-[4-(1-cyclopropylsulfonylcyclopentyl)-6-[(3S)-3-methylmorpholin-4-yl]pyrimidin-2-yl]phenyl]urea], the IC50 was 42.8 nM.

On to `C[C@H]1COCCN1c1cc(C2(S(=O)(=O)C3CC3)CCCC2)nc(-c2ccc(NC(=O)NCCCO)cc2)n1` [Example 36m, 1-[4-[4-(1-cyclopropylsulfonylcyclopentyl)-6-[(3S)-3-methylmorpholin-4-yl]pyrimidin-2-yl]phenyl]-3-(3-hydroxypropyl)urea], for which the IC50 was found to be 34.7 nM.

Regarding `Cc1csc(S(=O)(=O)C2(c3cc(N4CCOC[C@@H]4C)nc(-c4ccc(NC(=O)NCc5ncc[nH]5)cc4)n3)CC2)n1` [Example 36n, 3-(1H-imidazol-2-ylmethyl)-1-[4-[4-[(3S)-3-methylmorpholin-4-yl]-6-[1-[(4-methyl-1,3-thiazol-2-yl)sulfonyl]cyclopropyl]pyrimidin-2-yl]phenyl]urea], the IC50 came out at 24.8 nM. The same measure for `Cc1csc(S(=O)(=O)C2(c3cc(N4CCOC[C@@H]4C)nc(-c4ccc(NC(=O)NCCC#N)cc4)n3)CC2)n1` [Example 36o, 3-(2-cyanoethyl)-1-[4-[4-[(3S)-3-methylmorpholin-4-yl]-6-[1-[(4-methyl-1,3-thiazol-2-yl)sulfonyl]cyclopropyl]pyrimidin-2-yl]phenyl]urea]: 3.58 nM; for `Cc1csc(S(=O)(=O)C2(c3cc(N4CCOC[C@@H]4C)nc(-c4ccc(NC(=O)Nc5ncns5)cc4)n3)CC2)n1` [Example 36p, 1-[4-[4-[(3S)-3-methylmorpholin-4-yl]-6-[1-[(4-methyl-1,3-thiazol-2-yl)sulfonyl]cyclopropyl]pyrimidin-2-yl]phenyl]-3-(1,2,4-thiadiazol-5-yl)urea]: 1.61 nM. As to `Cc1csc(S(=O)(=O)C2(c3cc(N4CCOC[C@@H]4C)nc(-c4ccc(NC(=O)NC5(CO)CC5)cc4)n3)CC2)n1` [Example 36q, 3-[1-(hydroxymethyl)cyclopropyl]-1-[4-[4-[(3S)-3-methylmorpholin-4-yl]-6-[1-[(4-methyl-1,3-thiazol-2-yl)sulfonyl]cyclopropyl]pyrimidin-2-yl]phenyl]urea], the IC50 worked out at 88.9 nM. With `CS(=O)(=O)C1(c2cc(N3CCOCC3)nc(-c3ccc(NC(=O)NCCC#N)cc3)n2)CC1` [Example 36r, 3-(2-cyanoethyl)-1-[4-[4-(1-methylsulfonylcyclopropyl)-6-morpholin-4-ylpyrimidin-2-yl]phenyl]urea], the IC50 was 7.33 nM. Consider `CS(=O)(=O)C1(c2cc(N3CCOCC3)nc(-c3ccc(NC(=O)Nc4ncns4)cc3)n2)CC1` [Example 36s, 1-[4-[4-(1-methylsulfonylcyclopropyl)-6-morpholin-4-ylpyrimidin-2-yl]phenyl]-3-(1,2,4-thiadiazol-5-yl)urea], for which the IC50 worked out at 4.75 nM. As for `CS(=O)(=O)C1(c2cc(N3CCOCC3)nc(-c3ccc(NC(=O)NCc4ncc[nH]4)cc3)n2)CC1` [Example 36t, 3-(1H-imidazol-2-ylmethyl)-1-[4-[4-(1-methylsulfonylcyclopropyl)-6-morpholin-4-ylpyrimidin-2-yl]phenyl]urea], the IC50 worked out at 194 nM.

Regarding `CCS(=O)(=O)C1(c2cc(N3CCOC[C@@H]3C)nc(-c3ccc(NC(=O)NCCC#N)cc3)n2)CC1` [Example 36u, 3-(2-cyanoethyl)-1-[4-[4-(1-ethylsulfonylcyclopropyl)-6-[(3S)-3-methylmorpholin-4-yl]pyrimidin-2-yl]phenyl]urea], the IC50 came out at 9.22 nM. In the case of `CCS(=O)(=O)C1(c2cc(N3CCOC[C@@H]3C)nc(-c3ccc(NC(=O)NC4(CO)CC4)cc3)n2)CC1` [Example 36v, 1-[4-[4-(1-ethylsulfonylcyclopropyl)-6-[(3S)-3-methylmorpholin-4-yl]pyrimidin-2-yl]phenyl]-3-[1-(hydroymethyl)cyclopropyl]urea], the IC50 came out at 467 nM. For the compound `CCS(=O)(=O)C1(c2cc(N3CCOC[C@@H]3C)nc(-c3ccc(NC(=O)NCc4ncc[nH]4)cc3)n2)CC1` [Example 36w, 1-[4-[4-(1-ethylsulfonylcyclopropyl)-6-[(3S)-3-methylmorpholin-4-yl]pyrimidin-2-yl]phenyl]-3-(1H-imidazol-2-ylmethyl)urea], the IC50 stood at 110 nM. Regarding `C[C@H]1COCCN1c1cc(C2(S(=O)(=O)c3ccc(F)cc3)CC2)nc(-c2ccc(NC(=O)NC3(CO)CC3)cc2)n1` [Example 36x, 1-[4-[4-[1-(4-fluorophenyl)sulfonylcyclopropyl]-6-[(3S)-3-methylmorpholin-4-yl]pyrimidin-2-yl]phenyl]-3-[1-(hydroxymethyl)cyclopropyl]urea], the IC50 was 182 nM. The same measure for `C[C@H]1COCCN1c1cc(C2(S(=O)(=O)c3ccc(F)cc3)CC2)nc(-c2ccc(NC(=O)NCCC#N)cc2)n1` [Example 36y, 3-(2-cyanoethyl)-1-[4-[4-[1-(4-fluorophenyl)sulfonylcyclopropyl]-6-[(3S)-3-methylmorpholin-4-yl]pyrimidin-2-yl]phenyl]urea]: 1.31 nM.

In the case of `C[C@H]1COCCN1c1cc(C2(S(=O)(=O)c3ccc(F)cc3)CC2)nc(-c2ccc(NC(=O)Nc3ncns3)cc2)n1` [Example 36z, 1-[4-[4-[1-(4-fluorophenyl)sulfonylcyclopropyl]-6-[(3S)-3-methylmorpholin-4-yl]pyrimidin-2-yl]phenyl]-3-(1,2,4-thiadiazol-5-yl)urea], the IC50 was 2.08 nM. As for `CNC(=S)Nc1ccc(-c2nc(N3CCOC[C@@H]3C)cc(C3(S(=O)(=O)C4CC4)CC3)n2)cc1` [Example 37a, 1-[4-[4-(1-cyclopropylsulfonylcyclopropyl)-6-[(3S)-3-methylmorpholin-4-yl]pyrimidin-2-yl]phenyl]-3-methylthiourea], the IC50 was 26 nM.

In the case of `C[C@H]1COCCN1c1cc(C2(S(=O)(=O)c3ccccc3)CC2)nc(-c2ccc(NC(=S)NCCO)cc2)n1` [Example 37aa, 1-[4-[4-[1-(benzenesulfonyl)cyclopropyl]-6-[(3S)-3-methylmorpholin-4-yl]pyrimidin-2-yl]phenyl]-3-(2-hydroxyethyl)thiourea], the IC50 turned out to be 5.67 nM. The same measure for `C[C@H]1COCCN1c1cc(C2(S(=O)(=O)c3ccncc3)CC2)nc(-c2ccc(NC(=S)NCCO)cc2)n1` [Example 37ad, 3-(2-hydroxyethyl)-1-[4-[4-[(3S)-3-methylmorpholin-4-yl]-6-(1-pyridin-4-ylsulfonylcyclopropyl)pyrimidin-2-yl]phenyl]thiourea]: 2.63 nM; for `C[C@H]1COCCN1c1cc(C2(S(=O)(=O)c3ccncc3)CC2)nc(-c2ccc(NC(=S)NC3CC3)cc2)n1` [Example 37ae, 3-cyclopropyl-1-[4-[4-[(3S)-3-methylmorpholin-4-yl]-6-(1-pyridin-4-ylsulfonylcyclopropyl)pyrimidin-2-yl]phenyl]thiourea]: 9.52 nM; for `CNC(=S)Nc1ccc(-c2nc(N3CCOC[C@@H]3C)cc(C3(S(=O)(=O)c4ccncc4)CC3)n2)cc1` [Example 37af, 3-methyl-1-[4-[4-[(3S)-3-methylmorpholin-4-yl]-6-(1-pyridin-4-ylsulfonylcyclopropyl)pyrimidin-2-yl]phenyl]thiourea]: 23.3 nM. `C[C@H]1COCCN1c1cc(C2(S(=O)(=O)c3ccccc3)CC2)nc(-c2ccc(NC(=S)NC(C)(C)CO)cc2)n1` [Example 37ag, 1-[4-[4-[1-(benzenesulfonyl)cyclopropyl]-6-[(3S)-3-methylmorpholin-4-yl]pyrimidin-2-yl]phenyl]-3-(1-hydroxy-2-methylpropan-2-yl)thiourea]: the IC50 was determined as 13.4 nM.
